Target: T1, human Z A1AT (Homo sapiens, UniProt P01009, E366K)
T1 construct: expressed in transfected cells; host or cells: HEK-Z cells (human embryonic kidney cell line)
Assay: A1AT cell secretion assay using HEK-Z cells (ELISA of supernatant)
Format: cell-based
Conditions: 48 h, A1AT in supernatant by ELISA
Description: HEK-Z cells, a human embryonic kidney cell line stably transfected with the human Z A1AT gene, were plated into 96 well plates (3.0×10^5 cells/ml with 200 μl of media/well) overnight at 37° C. in a humidified atmosphere containing 5% CO2. Following incubation cells were washed with 200 μl serum-free media three times and media was replaced with treatments in quadruplicate using serum free media containing either vehicle, 10 μM suberanilohydroxamic acid (SAHA) or a compound of the invention (at concentrations of 10, 33, 100 and 333 nM) for 48 h in a 37° C. incubator in a final volume of 200 μl. At the end of the incubation step the supernatants were removed from the wells, centrifuged at 1000×g at 4° C. for 10 min and were assayed for human A1AT levels by ELISA (Human Serpin A1/α1-antitrypsin duo set ELISA, R& D Systems, DY1268) per manufacturer's instructions.
Briefly, a 96 well plate was coated with human A1AT capture antibody overnight at room temperature (1:180 dilution from stock, 100 μl final volume/well). The capture antibody was then removed and wells washed three times with 300 μl wash buffer (0.05% Tween 20 in PBS) and then 200 μl reagent diluent ([…]) was incubated in each well for 1 h at room temperature. Diluted samples, standards (125, 250, 500, 1000, 2000, 4000 and 8000 pg/ml A1AT) or blanks were then added to each well in duplicate and the plates were covered with a plate sealer and left at room temperature for 2 h. At the end of the sample incubation step, samples were removed and all wells washed as previously and 100 μl detection antibody (1:180 dilution from stock) was added to each well and incubated for a further 2 h at room temperature. […] After which, 50 μl stop solution (2M H2SO4) was added and optical density (OD) of each well was read at 450 nm with 570 nm blank subtracted from each well using a microplate reader. A 4 parameter logistic curve was constructed using GraphPad Prism 7 and A1AT concentrations were determined in each sample by interpolation from a standard curve and multiplying by the appropriate dilution factor.

T1 sequence (P01009 25-418 E366K): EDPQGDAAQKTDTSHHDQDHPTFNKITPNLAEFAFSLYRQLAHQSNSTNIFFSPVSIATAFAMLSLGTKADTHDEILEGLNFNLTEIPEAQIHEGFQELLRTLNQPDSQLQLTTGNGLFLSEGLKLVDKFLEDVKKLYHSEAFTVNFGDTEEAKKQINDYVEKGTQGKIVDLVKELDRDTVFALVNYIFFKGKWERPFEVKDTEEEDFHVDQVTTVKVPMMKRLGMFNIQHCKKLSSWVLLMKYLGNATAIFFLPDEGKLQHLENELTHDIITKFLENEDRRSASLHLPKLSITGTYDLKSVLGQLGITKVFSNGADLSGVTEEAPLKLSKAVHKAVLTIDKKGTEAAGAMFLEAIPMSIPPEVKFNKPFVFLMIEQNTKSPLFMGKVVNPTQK

Structure (SMILES) | Median A1AT % increase over vehicle at 300 nM
O=c1ccncn1Cc1ccc(-c2ncco2)cc1 [Example 1, 3-(4-(oxazol-2-yl)benzyl)pyrimidin-4(3H)-one] | 180%
O=c1c2ccccc2ncn1Cc1ccc(-c2ncco2)cc1 [Example 2, 3-(4-(oxazol-2-yl)benzyl)quinazolin-4(3H)-one] | 140%
O=c1cc[nH]c(=O)n1Cc1ccc(-c2ncco2)cc1 [Example 3, 3-(4-(oxazol-2-yl)benzyl)pyrimidine-2,4(1H,3H)-dione] | 180%
